# ChEMBL document CHEMBL1129026, “Rapid microscale synthesis, a new method for lead optimization using robotics and solution phase chemistry: application to the synthesis and optimization of corticotropin-releasing factor1 receptor antagonists” (J Med Chem, 1996)
# Target: T1, Corticotropin-releasing factor receptor 1 (Homo sapiens, UniProt P34998)
# T1 sequence (P34998 whole entry): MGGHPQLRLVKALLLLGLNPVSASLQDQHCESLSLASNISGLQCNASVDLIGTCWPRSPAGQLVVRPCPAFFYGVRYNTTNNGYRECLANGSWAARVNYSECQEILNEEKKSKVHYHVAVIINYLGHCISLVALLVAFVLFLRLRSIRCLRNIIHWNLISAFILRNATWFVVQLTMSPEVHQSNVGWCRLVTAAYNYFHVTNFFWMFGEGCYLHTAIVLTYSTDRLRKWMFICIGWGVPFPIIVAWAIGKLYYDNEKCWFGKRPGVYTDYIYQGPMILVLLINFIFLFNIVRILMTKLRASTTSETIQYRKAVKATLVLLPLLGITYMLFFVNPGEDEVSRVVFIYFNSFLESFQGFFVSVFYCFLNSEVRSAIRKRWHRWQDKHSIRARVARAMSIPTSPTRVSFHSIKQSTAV
# Experiment: Inhibition of [125I]CRF binding to human corticotropin releasing factor receptor 1
row,Ki [µM],SMILES
1,> 10,C=CCN(CC=C)c1nc(C)nc(Nc2c(C)cccc2C)n1
2,0.49,CCCN(Cc1ccccc1)c1nc(C)nc(Nc2c(C)cc(C)cc2C)n1
3,> 10,C=CCN(CC=C)c1nc(C)nc(Nc2ccc(C)cc2)n1
4,0.115,C=CCN(CC=C)c1nc(C)nc(Nc2c(C)cc(C)cc2C)n1
5,0.49,CCCCN(CCCC)c1nc(C)nc(Nc2c(C)cc(C)cc2C)n1
6,> 10,CCN(Cc1ccccc1)c1nc(C)nc(Nc2c(C)cccc2C)n1
7,> 10,CCCN(CC1CC1)c1nc(C)nc(Nc2ccc(C)cc2)n1
8,1.47,CCN(Cc1ccccc1)c1nc(C)nc(Nc2c(C)cc(C)cc2C)n1
9,0.13,CCCN(CCC)c1nc(C)nc(Nc2c(C)cc(C)cc2C)n1
10,> 10,CCCN(Cc1ccccc1)c1nc(C)nc(Nc2c(CC)cccc2CC)n1
11,1.7,CCc1cccc(CC)c1Nc1nc(C)nc(N(CC)Cc2ccccc2)n1
12,> 10,CCCN(CC1CC1)c1nc(CC)nc(Nc2c(C)cc(C)cc2C)n1
13,> 10,CCN(Cc1ccccc1)c1nc(C)nc(Nc2ccc(C)cc2)n1
14,> 10,CCCN(Cc1ccccc1)c1nc(C)nc(Nc2ccc(C)cc2)n1
15,> 10,CCCN(CC1CC1)c1nc(C)nc(Nc2c(CC)cccc2CC)n1
16,> 10,CCCN(CC1CC1)c1nc(C)nc(Nc2c(C)cccc2C)n1
17,> 10,CCCN(CC1CC1)c1nc(C)nc(Nc2ccc(C)cc2C)n1
18,1.05,CCCCN(Cc1ccccc1)c1nc(C)nc(Nc2c(C)cc(C)cc2C)n1
19,8,CCCN(CC1CC1)c1nc(C)nc(Nc2ccc(OC)cc2OC)n1
20,55,CCc1cccc(CC)c1Nc1nc(C)nc(NCc2ccc(C(F)(F)F)cc2)n1
21,> 10,Cc1nc(NCc2ccc(C(F)(F)F)cc2)nc(Nc2c(C)cccc2C)n1
22,> 10,Cc1ccc(Nc2nc(C)nc(NCc3ccc(C(F)(F)F)cc3)n2)cc1
23,> 10,CCCN(Cc1ccccc1)c1nc(C)nc(Nc2c(C)cccc2C)n1
